Measurements from patent EP0918774B9, “ANDROGEN RECEPTOR MODULATOR COMPOUNDS AND METHODS” (LIGAND PHARMACEUTICALS INCORPORATED, priority 1996, dated 1997).

Experiments:
[1] = biological target: T1, ER (Homo sapiens, UniProt P03372); test: Co-transfection assay, ER agonist mode; assay type: cell-based
T1 construct: expressed in transfected cells; host or cells: CV-1 cells
Experimental: (§1) CV-1 cells (African green monkey kidney fibroblasts) were cultured in the presence of Dulbecco's Modified Eagle Medium (DMEM) supplemented with 10% charcoal resinstripped fetal bovine serum then transferred to 96-well microtiter plates one day prior to transfection.
(§2) Three to four replicates were used for each sample.
(§3) After 40 hours, the cells were washed with PBS, lysed with a Triton X-100-based buffer and assayed for LUC and β-Gal activities using a luminometer or spectrophotometer, respectively. For each replicate, the normalized response (NR) was calculated as: LUC response/β-Gal rate where β-Gal rate = β-Gal•1x10^-5/β-Gal incubation time.

[2] = biological target: T1, ER; test: Co-transfection assay, ER antagonist mode; assay type: cell-based
Experimental: as §1, §2, §3

[3] = biological target: T2, GR (Homo sapiens, UniProt P04150); test: cell-based
T2 sequence (P04150 1-777): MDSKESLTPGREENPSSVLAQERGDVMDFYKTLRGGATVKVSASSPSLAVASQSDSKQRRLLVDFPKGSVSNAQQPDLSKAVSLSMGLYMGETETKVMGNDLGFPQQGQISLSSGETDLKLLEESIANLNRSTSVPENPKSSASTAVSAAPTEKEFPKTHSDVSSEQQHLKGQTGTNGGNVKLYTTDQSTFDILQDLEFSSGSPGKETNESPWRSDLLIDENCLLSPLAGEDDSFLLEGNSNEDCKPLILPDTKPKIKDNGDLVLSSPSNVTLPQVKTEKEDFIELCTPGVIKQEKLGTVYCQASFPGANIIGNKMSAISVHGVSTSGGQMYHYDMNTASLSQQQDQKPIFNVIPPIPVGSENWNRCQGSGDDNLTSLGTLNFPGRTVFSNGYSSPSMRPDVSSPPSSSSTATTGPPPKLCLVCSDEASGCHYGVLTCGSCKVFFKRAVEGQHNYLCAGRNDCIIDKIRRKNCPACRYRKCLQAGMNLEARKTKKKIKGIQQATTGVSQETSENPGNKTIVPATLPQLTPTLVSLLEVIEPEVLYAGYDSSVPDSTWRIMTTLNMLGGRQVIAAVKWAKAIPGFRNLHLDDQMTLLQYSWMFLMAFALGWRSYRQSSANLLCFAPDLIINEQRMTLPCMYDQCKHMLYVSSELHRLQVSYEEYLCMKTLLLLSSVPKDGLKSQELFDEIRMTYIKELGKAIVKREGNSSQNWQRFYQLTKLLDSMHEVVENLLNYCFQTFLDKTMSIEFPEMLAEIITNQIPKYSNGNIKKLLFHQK
Experimental: as §1, §2, §3

[4] = biological target: T3, PR (Homo sapiens, UniProt P06401); test: Co-transfection assay, PR agonist mode; assay type: cell-based; parameters: expressed in transfected cells; host or cells: CV-1 cells
T3 sequence (P06401 1-933): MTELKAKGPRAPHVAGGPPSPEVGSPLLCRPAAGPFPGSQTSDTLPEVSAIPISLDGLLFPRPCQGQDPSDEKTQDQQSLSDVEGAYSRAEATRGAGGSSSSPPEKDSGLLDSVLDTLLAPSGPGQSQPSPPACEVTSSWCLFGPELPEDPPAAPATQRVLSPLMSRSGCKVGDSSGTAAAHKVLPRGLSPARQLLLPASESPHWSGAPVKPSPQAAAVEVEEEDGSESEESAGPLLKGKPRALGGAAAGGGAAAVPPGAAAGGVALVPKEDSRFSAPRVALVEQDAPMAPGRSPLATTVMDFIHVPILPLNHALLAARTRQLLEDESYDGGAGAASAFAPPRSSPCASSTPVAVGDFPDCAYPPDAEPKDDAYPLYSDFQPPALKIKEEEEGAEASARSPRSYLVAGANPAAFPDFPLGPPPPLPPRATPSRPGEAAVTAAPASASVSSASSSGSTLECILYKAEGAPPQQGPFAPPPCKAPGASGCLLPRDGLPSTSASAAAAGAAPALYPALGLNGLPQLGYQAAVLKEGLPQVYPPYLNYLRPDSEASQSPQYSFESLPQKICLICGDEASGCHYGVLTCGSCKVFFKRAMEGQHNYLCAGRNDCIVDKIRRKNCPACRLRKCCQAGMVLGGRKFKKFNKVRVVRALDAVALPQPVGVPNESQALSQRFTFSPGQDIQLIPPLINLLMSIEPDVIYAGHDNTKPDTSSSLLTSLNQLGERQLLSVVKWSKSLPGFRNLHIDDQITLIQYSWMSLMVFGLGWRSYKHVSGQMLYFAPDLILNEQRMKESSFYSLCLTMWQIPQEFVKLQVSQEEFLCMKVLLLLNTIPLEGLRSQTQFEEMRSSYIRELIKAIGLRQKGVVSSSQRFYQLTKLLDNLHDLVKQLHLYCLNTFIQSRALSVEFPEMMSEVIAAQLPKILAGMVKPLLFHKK
Experimental: as §1, §2, §3

[5] = biological target: T4, human AR (Homo sapiens, UniProt P10275); test: cell-based; assay type: cell-based
T4 construct: expressed in transfected cells; host or cells: CV-1 cells (African green monkey kidney fibroblasts), transient calcium phosphate transfection
T4 sequence (P10275 1-920): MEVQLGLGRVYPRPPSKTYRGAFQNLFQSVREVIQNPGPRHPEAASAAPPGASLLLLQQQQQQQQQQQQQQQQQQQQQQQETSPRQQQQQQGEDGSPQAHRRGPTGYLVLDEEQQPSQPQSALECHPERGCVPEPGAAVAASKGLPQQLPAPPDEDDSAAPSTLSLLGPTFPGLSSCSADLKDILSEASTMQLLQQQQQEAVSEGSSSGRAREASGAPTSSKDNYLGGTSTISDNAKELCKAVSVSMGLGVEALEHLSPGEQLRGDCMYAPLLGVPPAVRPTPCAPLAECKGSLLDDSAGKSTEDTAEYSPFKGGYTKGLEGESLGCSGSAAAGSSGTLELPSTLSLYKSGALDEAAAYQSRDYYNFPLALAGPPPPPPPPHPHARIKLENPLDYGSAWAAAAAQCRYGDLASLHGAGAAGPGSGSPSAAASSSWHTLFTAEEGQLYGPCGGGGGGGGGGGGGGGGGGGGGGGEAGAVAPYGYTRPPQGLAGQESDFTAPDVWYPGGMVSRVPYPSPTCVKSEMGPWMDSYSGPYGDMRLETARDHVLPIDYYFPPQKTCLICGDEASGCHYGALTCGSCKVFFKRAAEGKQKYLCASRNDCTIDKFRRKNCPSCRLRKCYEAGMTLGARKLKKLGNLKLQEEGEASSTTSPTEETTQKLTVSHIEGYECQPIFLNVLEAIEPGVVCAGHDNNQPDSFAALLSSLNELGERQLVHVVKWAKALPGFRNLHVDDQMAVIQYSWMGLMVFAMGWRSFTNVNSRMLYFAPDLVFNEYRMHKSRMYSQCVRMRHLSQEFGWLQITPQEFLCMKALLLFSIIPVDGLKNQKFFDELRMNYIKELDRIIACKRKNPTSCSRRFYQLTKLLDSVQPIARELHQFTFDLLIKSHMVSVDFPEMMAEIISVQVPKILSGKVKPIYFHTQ
Text: The co-transfection assay provides a method for identifying functional agonists and partial agonists which mimic, or antagonists which inhibit, the effect of native hormones, and quantifying their activity for responsive IR proteins. In this regard, the co-transfection assay mimics an in vivo system in the laboratory. Importantly, activity in the co-transfection assay correlates very well with known in vivo activity, such that the co-transfection assay functions as a qualitative and quantitative predictor of a tested compounds in vivo pharmacology. See, e.g., T. Berger et al. 41 J. Steroid Biochem. Molec.
as §1
The reporter plasmid, MTV-LUC, contains the cDNA for firefly luciferase (LUC) under control of the mouse mammary tumor virus (MTV) long terminal repeat, a conditional promoter containing an androgen response element. See e.g, Berger et al. supra. In addition, pRS-β-Gal, coding for constitutive expression of E. colβ-galactosidase (β-Gal), was included as an internal control for evaluation of transfection efficiency and compound toxicity.
as §2, §3

[6] = biological target: T4, human AR; test: cell-based; assay type: binding
[7] = biological target: T3, PR; test: cell-based

T1 sequence (P03372 whole entry): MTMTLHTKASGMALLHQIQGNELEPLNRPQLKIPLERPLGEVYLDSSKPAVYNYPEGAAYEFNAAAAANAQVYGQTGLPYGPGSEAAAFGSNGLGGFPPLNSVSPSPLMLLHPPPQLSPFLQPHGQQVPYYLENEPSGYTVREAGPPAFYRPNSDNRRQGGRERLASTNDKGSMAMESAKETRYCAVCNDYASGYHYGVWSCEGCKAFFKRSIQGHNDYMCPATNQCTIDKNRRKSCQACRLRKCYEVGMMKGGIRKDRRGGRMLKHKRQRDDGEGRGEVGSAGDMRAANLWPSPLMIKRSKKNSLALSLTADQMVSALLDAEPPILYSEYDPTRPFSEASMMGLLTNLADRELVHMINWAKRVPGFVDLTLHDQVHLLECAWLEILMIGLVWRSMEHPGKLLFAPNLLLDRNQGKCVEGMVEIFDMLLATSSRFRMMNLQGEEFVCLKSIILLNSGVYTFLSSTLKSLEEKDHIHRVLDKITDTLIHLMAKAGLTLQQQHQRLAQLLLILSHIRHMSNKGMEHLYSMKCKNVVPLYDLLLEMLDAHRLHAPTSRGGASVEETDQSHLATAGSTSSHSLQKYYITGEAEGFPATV

Structure (SMILES)	EC50 [1] [µM]	IC50 [2] [nM]	IC50 [3] [µM]	EC50 [4] [µM]	AR Antagonist CV-1 Cells Efficacy (%) ([5]; % of maximal inhibition, fixed DHT at EC50, na = not active)	AR agonist/antagonist profile (in words) ([5]; co-transfection assay, summary of Tables 1-2)	AR Agonist CV-1 Cells Efficacy (%) ([5]; percent maximal response relative to reference agonist DHT, na = not active)	Ki [6] [nM]	IC50 [7] [nM]
Cn1c(=O)cc(C(F)(F)F)c2cc3c(cc21)N1CCCC1(C)CC3 (racemic) [Compound 103, (R/S)-6,7,7a,11-Tetrahydro-1,7a-dimethyl-4-trifluoromethyl-2-pyridono[5,6-g]pyrrolidino[1,2-a]quinoline]	> 10	> 10000	> 10	> 10					
CC1(C)CCc2cc3c(C(F)(F)F)c(F)c(=O)[nH]c3cc2N1 [Compound 105, 7-Fluoro-1,2,3,4-tetrahydro-2,2-dimethyl-6-trifluoromethyl-8-pyridono[5,6-g]quinoline]	> 10	34	> 10	> 10	31	mixed AR agonists/antagonists	48	26	
C[C@]12CCC(=O)C[C@@H]1CC[C@@H]1[C@@H]2CC[C@]2(C)[C@@H](O)CC[C@@H]12 [DHT, dihydrotestosterone, reference compound]				> 10					1800
